In publication PMC6131351, “Pharmacological difference between degrader and inhibitor against oncogenic BCR-ABL kinase” (Scientific Reports, 2018):
Values belong to the molecule of their own block, whether it stands above or below them. Residues, ends and D or L forms follow the SMILES beside them. No end group written: not given here. *: point of attachment. 5FAM = O=C1OC2(c3ccc(O)cc3Oc3cc(O)ccc32)c2ccc(C(=O)*)cc21; Cbz = O=C(OCc1ccccc1)*; CH2F = FC*

Legend:
[1] = target: T1, BCR-ABL protein (Homo sapiens, UniProt P00519+P11274); assay: Protein knockdown by western blot in K562 cells; type: cell-based; settings: 6 h, 1-300 nM
T1 construct: examined for their activity to degrade BCR-ABL in K562 cells for 6 h; BCR (fusion partner, P11274, N-terminal part); endogenous in cells; host or cells: K562
T1 sequence (P11274+P00519 fused): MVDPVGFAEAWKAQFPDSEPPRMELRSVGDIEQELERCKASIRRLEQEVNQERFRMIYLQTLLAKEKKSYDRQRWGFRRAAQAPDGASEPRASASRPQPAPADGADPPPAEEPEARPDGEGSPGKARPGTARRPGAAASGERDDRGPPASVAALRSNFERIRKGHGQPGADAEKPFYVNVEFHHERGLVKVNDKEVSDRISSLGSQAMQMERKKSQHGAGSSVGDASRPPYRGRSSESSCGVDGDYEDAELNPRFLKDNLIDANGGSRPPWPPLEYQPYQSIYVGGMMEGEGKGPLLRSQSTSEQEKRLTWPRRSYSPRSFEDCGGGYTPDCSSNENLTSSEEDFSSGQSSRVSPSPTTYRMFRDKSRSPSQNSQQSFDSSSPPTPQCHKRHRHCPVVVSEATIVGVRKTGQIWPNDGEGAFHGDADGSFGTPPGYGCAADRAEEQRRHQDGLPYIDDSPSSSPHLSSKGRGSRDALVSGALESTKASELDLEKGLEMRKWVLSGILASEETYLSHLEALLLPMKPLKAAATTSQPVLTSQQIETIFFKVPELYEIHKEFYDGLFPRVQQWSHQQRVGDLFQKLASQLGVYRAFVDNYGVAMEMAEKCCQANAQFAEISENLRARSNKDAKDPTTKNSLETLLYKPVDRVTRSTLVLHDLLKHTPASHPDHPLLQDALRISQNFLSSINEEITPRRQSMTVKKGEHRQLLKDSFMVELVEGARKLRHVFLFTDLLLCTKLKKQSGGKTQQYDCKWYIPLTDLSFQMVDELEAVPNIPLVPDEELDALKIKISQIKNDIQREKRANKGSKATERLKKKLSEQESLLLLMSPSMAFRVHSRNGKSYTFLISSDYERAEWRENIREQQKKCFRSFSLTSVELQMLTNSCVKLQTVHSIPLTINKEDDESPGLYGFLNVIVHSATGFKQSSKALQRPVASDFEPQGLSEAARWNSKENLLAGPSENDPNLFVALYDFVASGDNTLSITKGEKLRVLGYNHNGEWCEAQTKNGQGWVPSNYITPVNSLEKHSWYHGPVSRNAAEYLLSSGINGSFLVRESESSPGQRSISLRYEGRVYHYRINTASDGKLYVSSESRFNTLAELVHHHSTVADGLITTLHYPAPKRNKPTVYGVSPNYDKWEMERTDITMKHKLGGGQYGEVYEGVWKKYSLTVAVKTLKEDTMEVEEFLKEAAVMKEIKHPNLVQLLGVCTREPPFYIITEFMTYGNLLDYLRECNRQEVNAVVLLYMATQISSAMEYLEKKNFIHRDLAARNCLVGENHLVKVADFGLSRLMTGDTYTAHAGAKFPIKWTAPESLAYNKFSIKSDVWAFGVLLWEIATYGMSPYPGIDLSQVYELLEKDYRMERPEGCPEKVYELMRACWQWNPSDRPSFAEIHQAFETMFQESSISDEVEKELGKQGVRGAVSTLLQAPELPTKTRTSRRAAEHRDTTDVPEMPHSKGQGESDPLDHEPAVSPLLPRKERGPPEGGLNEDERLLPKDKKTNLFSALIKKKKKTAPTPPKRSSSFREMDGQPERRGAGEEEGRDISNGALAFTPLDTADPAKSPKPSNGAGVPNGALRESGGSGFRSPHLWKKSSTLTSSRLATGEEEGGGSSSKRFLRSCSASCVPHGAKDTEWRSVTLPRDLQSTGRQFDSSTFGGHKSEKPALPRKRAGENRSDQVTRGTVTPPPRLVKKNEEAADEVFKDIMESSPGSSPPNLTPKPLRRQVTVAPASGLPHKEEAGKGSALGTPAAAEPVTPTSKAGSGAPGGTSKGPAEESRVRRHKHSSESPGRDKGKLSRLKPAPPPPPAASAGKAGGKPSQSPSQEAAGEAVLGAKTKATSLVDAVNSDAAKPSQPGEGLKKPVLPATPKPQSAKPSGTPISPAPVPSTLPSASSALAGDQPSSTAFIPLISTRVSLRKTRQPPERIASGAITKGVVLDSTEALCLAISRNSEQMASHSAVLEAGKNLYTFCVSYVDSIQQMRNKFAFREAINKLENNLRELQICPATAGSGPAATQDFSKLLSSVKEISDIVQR
Description: (§1) Cells were collected and lysed in a lysis buffer (0.5% Triton X-100, 0.01 M Tris-HCl (pH 7.5), 0.15 M NaCl, Complete Mini protease inhibitor cocktail (Roche Applied Science, Indianapolis, IL, USA) and PhosStop phosphatase inhibitor cocktail (Roche Applied Science)). Protein concentrations were measured by the BCA method (Thermo Fisher Scientific) and an equal amount of protein lysate was separated by SDS-PAGE, transferred to polyvinylidene difluoride membranes (Merck Millipore) and analyzed by western blot using an appropriate antibody. The immunoreactive proteins were visualized using Clarity Western ECL substrate (Bio-Rad, Hercules, CA, USA) and their light emission was quantified with a LAS-3000 lumino-image analyzer (Fuji, Tokyo, Japan).

[2] = test system: K562 cells; assay: WST cell growth inhibition, K562; type: cell-based, Human; settings: 48 h
Description: (§2) Human CML (K562 and KU812 cells), acute T-lymphoblast leukemia (MOLT-4 cell), and T cell leukemia (Jurkat cell) were cultured in Roswell Park Memorial Institute-1640 medium (Sigma-Aldrich, St. Louis, MO, USA) containing 10% fetal bovine serum (Thermo Fisher Scientific, Waltham, MA, USA) and 50 μg/ml kanamycin (Sigma-Aldrich). KU812 cells were obtained from Japanese Collection of Research Bioresources (JCRB, Osaka, Japan) Cell Bank (JCRB0104)[58].
(§3) Cell viability was determined using water-soluble tetrazolium WST-8 (4-[3-(2-methoxy-4-nitrophenyl)-2-(4-nitrophenyl)-2H-5-tetrazolio]-1,3-benzene disulfonate) for the spectrophotometric assay and conducted according to the manufacturer’s instructions (Dojindo, Tokyo, Japan). Cells were seeded at a concentration of 5 × 10^3 cells per well in a 96-well culture plate, and treated with the indicated compounds for 48 h. The WST-8 reagent was added, and the cells were incubated for 0.5 h at 37 °C in a humidified atmosphere of 5% CO2. The absorbance at 450 nm of the medium was measured using the EnVision Multilabel Plate Reader.

[3] = test system: phosphorylation of BCR-ABL, STAT5 and CrkL; assay: Downstream kinase signaling (phosphorylation) by western blot in K562 cells; type: cell-based, Human
Description: as §1, with “Japan). The following antibodies were used: anti-cAbl rabbit polyclonal antibody (pAb) (#2862), anti-XIAP rabbit pAb (#2042), anti-phospho-cAbl rabbit pAb (#3009), anti-STAT5 rabbit pAb (#9363), anti-phospho-STAT5 rabbit pAb (#9359), anti-CrkL mouse monoclonal antibody (mAb) (#3182) and anti-phospho-CrkL rabbit pAb (#3181), anti-PARP rabbit pAb (#9532), and anti-cleaved Caspase 3 rabbit pAb (#9664) (Cell Signaling Technology, Danvers, MA, USA); anti-β-tubulin (ab6046) rabbit pAb (Abcam, Cambridge, UK) and anti-GAPDH rabbit pAb (sc-25778 HRP) (Santa Cruz, Dallas, TX, USA); anti-cIAP1 goat pAb (AF8181) (R&D systems).” for “Japan).”
(§4) Cells were seeded at a concentration of 2 × 10^6 cells per 10-cm tissue culture dish and treated with the indicated compounds for the indicated times. Then, the cells were washed three times to remove the compounds, and incubated in drug-free medium for the indicated times.

[4] = test system: K562 cells; assay: Washout experiment, cell counting of K562 cells; type: cell-based, Human; settings: 25 or 50 times IC50 for 12 h, washed, drug-free medium for 6 d
Description: as §4

[5] = test system: KU812 cells; assay: WST cell growth inhibition, KU812; type: cell-based; settings: Homo sapiens, 48 h, WST assay, means ± SD (n = 3)
Description: as §2, §3

[6] = test system: caspase 3 activation and PARP cleavage; assay: Caspase activation and PARP cleavage after drug removal in K562 cells; type: cell-based, Human
Description: as §1, with “Japan). The following antibodies were used: anti-cAbl rabbit polyclonal antibody (pAb) (#2862), anti-XIAP rabbit pAb (#2042), anti-phospho-cAbl rabbit pAb (#3009), anti-STAT5 rabbit pAb (#9363), anti-phospho-STAT5 rabbit pAb (#9359), anti-CrkL mouse monoclonal antibody (mAb) (#3182) and anti-phospho-CrkL rabbit pAb (#3181), anti-PARP rabbit pAb (#9532), and anti-cleaved Caspase 3 rabbit pAb (#9664) (Cell Signaling Technology, Danvers, MA, USA); anti-β-tubulin (ab6046) rabbit pAb (Abcam, Cambridge, UK) and anti-GAPDH rabbit pAb (sc-25778 HRP) (Santa Cruz, Dallas, TX, USA); anti-cIAP1 goat pAb (AF8181) (R&D systems).” for “Japan).”
as §4

[7] = target: T2, recombinant His-tagged human XIAP (BIR3, Asn252-Thr356) (human, UniProt P98170 252-356); assay: AlphaScreen or HTRF; TR-FRET competition assay: 0.6 nM His-IAP BIR3 held by biotinylated anti-His antibody and terbium-streptavidin, FITC-Smac probe (27 nM for XIAP, 12 nM for cIAP1, 19 nM for cIAP2), small-molecule test compounds as competitors; 50 mM HEPES pH 7.2-7.5, 10 mM MgCl2, 1 mM EGTA, 0.1 mM DTT, 0.01% Brij 35; room temperature; settings: both partners purified
T2 construct: XIAP, human, BIR3 domain, residues Asn252-Thr356; also called His-IAP proteins; source: bought: R&D Systems (895-XB-050)
T2 sequence (P98170 252-356): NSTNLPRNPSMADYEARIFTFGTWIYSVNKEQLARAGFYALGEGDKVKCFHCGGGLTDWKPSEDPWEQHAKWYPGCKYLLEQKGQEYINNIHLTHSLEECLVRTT

[8] = target: T3, recombinant His-tagged human cIAP1 (BIR3, Leu250-Gly350) (human, UniProt Q13490 250-350); assay: as above; settings: both partners purified
T3 construct: cIAP1, human, BIR3 domain, residues Leu250-Gly350; also called His-IAP proteins; source: E. coli, purified (Ni-NTA column, gel filtration chromatography)
T3 sequence (Q13490 250-350): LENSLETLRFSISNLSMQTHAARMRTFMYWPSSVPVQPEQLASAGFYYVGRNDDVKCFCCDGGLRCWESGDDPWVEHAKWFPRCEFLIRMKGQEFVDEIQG

[9] = target: T4, recombinant His-tagged human cIAP2 (BIR3, Gln238-Ser349) (human, UniProt Q13489 238-349); assay: as above; settings: both partners purified
T4 construct: cIAP2, human, BIR3 domain, residues Gln238-Ser349; also called His-IAP proteins; source: E. coli, purified (Ni-NTA column, gel filtration chromatography)
T4 sequence (Q13489 238-349): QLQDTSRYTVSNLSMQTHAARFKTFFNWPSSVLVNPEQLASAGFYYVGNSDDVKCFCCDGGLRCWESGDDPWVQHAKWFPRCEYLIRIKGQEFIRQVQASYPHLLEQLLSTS

Molecule: CCN1CCN(Cc2ccc(NC(=O)c3cccc(-c4ccc5nc(NC(=O)COCCOCCOCCOc6cccc(C(=O)c7csc([C@@H]8CCCN8C(=O)[C@@H](NC(=O)[C@H](C)NC)C8CCCCC8)n7)c6)sc5n4)c3)cc2C(F)(F)F)CC1 [HG-IAP]
knockdown activity against the BCR-ABL protein [1]: weak

Molecule: CCN1CCN(Cc2ccc(NC(=O)c3cccc(-c4ccc5nc(NC(=O)COCCOCCOCC(=O)N[C@H](C(=O)N6C[C@H](O)C[C@H]6C(=O)NCc6ccc(-c7scnc7C)cc6)C(C)(C)C)sc5n4)c3)cc2C(F)(F)F)CC1 [HG-VHL]
knockdown activity against the BCR-ABL protein [1]: effective protein knockdown activity | suppression of K562 cell growth (comparison) ([2]; WST assay): more potent suppression of the growth of K562 cells than HG-IAP and HG-CRBN

Molecule: Cc1nc(Nc2ncc(C(=O)Nc3c(C)cccc3Cl)s2)cc(N2CCN(CCO)CC2)n1 [Dasatinib, dasatinib, reference compound]
phosphorylation of BCR-ABL, STAT5 and CrkL ([3]; K562, 50 times IC50 for 12 h (time 0)): inhibited | phosphorylation of BCR-ABL, STAT5 and CrkL ([3]; K562 cells, 6 h): suppressed | growth of K562 cells after drug removal [4]: slightly delayed the growth | IC50 [5]: 0.0448 ± 0.0005 nM | times more active than DAS-IAP to inhibit CML cell growth [2]: 100 times | IC50 ([2]; Homo sapiens, WST assay, means ± SD (n = 3)): 0.0793 ± 0.0037 nM | caspase 3 activation and PARP cleavage ([6]; K562, 50 times IC50 for 12 h, drug removal for 24 h): not

Molecule: COC(=O)C[C@H](NC(=O)[C@H](C)NC(=O)[C@@H](NC(=O)OCc1ccccc1)C(C)C)C(=O)CF [zVAD-FMK, reference compound] (Cbz-Val-Ala-Asp(OMe)-CH2F)
effect on caspase activation and PARP cleavage by DAS-IAP ([6]; K562, after DAS-IAP pulse and drug removal, 24 h): abrogated

Other lines, results leading:

knockdown activity against the BCR-ABL protein [1]: negligible activity
Molecule: Cc1nc(Nc2ncc(C(=O)Nc3c(C)cccc3Cl)s2)cc(N2CCN(C(=O)COCCOCCOCC(=O)N[C@H](C(=O)N3C[C@H](O)C[C@H]3C(=O)NCc3ccc(-c4scnc4C)cc3)C(C)(C)C)CC2)n1 [DAS-VHL]

binding result [7]: binds | binding result [8]: binds | binding result [9]: binds
B1: FITC-labeled Smac peptide (FITC-Smac, AVPIAQK(5-FAM)-NH2) (peptide)
peptide: AVPIAQK(5FAM)-NH2
modifications: N-terminus assumed
SMILES: CC[C@H](C)[C@H](NC(=O)[C@@H]1CCCN1C(=O)[C@@H](NC(=O)[C@H](C)N)C(C)C)C(=O)N[C@@H](C)C(=O)N[C@@H](CCC(N)=O)C(=O)N[C@@H](CCCCNC(=O)c1ccc2c(c1)C(=O)OC21c2ccc(O)cc2Oc2cc(O)ccc21)C(N)=O
notes: N-terminal stretch of mature Smac (DIABLO); Fluorescent probe of the TR-FRET assay; source: synthetic peptide (synthesized in Scrum, Tokyo)
